Counter-ions that a name gives are not always drawn. Like-named read-outs stand apart in the source and are kept apart here.
Tests used:
[1] = target: MCL-1 (Homo sapiens, UniProt Q07820); assay: Protein-protein interaction assay MCL-1/Noxa BH3 peptide (MCL-1 assay), TR-FRET; format: binding; conditions: MBP-MCL-1 / Noxa BH3-derived peptide, median
Summary of the method: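 IC50 came from a 4-parameter fit of the normalized 665/620 nm TR-FRET ratio (anti-MBP Eu-cryptate/streptavidin-XL665). Compounds (0.1 nM–20 μM, duplicates) were preincubated 10 min at 22 °C with 1 nM MBP-MCL-1 in pH 7 Tris/NaCl/KF buffer, then read after 1 h at 22 °C plus overnight at 4 °C.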

[2] = tested on: SUDHL5; assay: Induction of caspase-3/7 activity (Caspase-Glo 3/7), SUDHL5; format: cell-based; conditions: caspase-3/7 induction, SUDHL5 cells, 3 h treatment, median
Summary of the method: (§1)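 DLBCL lines SUDHL5 and SUDHL10 treated with compounds for 3 h at 37 °C; caspase-3/7 activity read by Caspase-Glo 3/7 luminescence. Medium-only background subtracted; EC50 fitted with bottom fixed at 1 and top fixed at the reference compound's maximal induction.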

[3] = tested on: SUDHL10; assay: Induction of caspase-3/7 activity (Caspase-Glo 3/7), SUDHL10; format: cell-based; conditions: caspase-3/7 induction, SUDHL10 cells, 3 h treatment, median
Summary of the method: as §1

[4] = tested on: SUDHL5; assay: Anti-proliferative effect (CellTiter-Glo, 72 h), SUDHL5; format: cell-based; conditions: SUDHL5 cells, antiproliferation, median, read-out: Antiproli SUDHL5 [M] (median)
Summary of the method: (§2)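 72 h compound treatment, 37 °C humidified; CellTiter-Glo added, 10 min incubation, luminescence read; day 0 plate read in parallel for baseline.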

[5] = tested on: SUDHL10; assay: Anti-proliferative effect (CellTiter-Glo, 72 h), SUDHL10; format: cell-based; conditions: SUDHL10 cells, antiproliferation, median, read-out: Antiproli SUDHL10 [M] (median)
Summary of the method: as §2

[6] = tested on: A2780; assay: Anti-proliferative effect (CellTiter-Glo, 72 h), A2780; format: cell-based; conditions: A2780 cells, median, read-out: IC50 antiproliferation assay A2780 [M] (median)
Summary of the method: as §2

[7] = tested on: SUDHL5; assay: Induction of cytotoxicity (CellTiter-Glo, 5 h), SUDHL5
[8] = tested on: SUDHL10; assay: Induction of cytotoxicity (CellTiter-Glo, 5 h), SUDHL10
[9] = read-out: Cytotox SUDHL5 [M] (median), SUDHL5 cells, cytotoxicity induction, CellTiter-Glo, 5 h, median
[10] = read-out: Cytotox SUDHL10 [M] (median), SUDHL10 cells, cytotoxicity induction, CellTiter-Glo, 5 h, median
[11] = Homo sapiens, SU-DHL-5, 72 h, 72 h
[12] = Homo sapiens, SU-DHL10, 72 h, 72 h
[13] = Homo sapiens, SU-DHL-5, 5 h, read-out: Cytotox SUDHL5 [M] (median), SUDHL5 cells, cytotoxicity induction, CellTiter-Glo, 5 h, median
[14] = Homo sapiens, SU-DHL10, 5 h, read-out: Cytotox SUDHL10 [M] (median), SUDHL10 cells, cytotoxicity induction, CellTiter-Glo, 5 h, median
[15] = read-out: Cytotox SUDHL5 [M] (median), SUDHL5 cells, cytotoxicity induction, CellTiter-Glo, 5 h incubation, median
[16] = read-out: Cytotox SUDHL10 [M] (median), SUDHL10 cells, cytotoxicity induction, CellTiter-Glo, 5 h incubation, median

Chain of MCL-1 (Q07820 whole entry): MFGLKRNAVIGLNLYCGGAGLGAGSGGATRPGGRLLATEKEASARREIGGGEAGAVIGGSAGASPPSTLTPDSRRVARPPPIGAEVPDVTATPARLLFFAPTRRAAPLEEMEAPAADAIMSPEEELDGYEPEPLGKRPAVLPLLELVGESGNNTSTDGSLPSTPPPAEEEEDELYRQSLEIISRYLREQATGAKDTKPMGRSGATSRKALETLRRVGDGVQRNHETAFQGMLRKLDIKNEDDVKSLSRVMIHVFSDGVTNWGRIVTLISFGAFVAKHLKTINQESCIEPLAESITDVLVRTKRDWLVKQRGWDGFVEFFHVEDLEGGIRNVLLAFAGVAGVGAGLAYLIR

| SMILES | IC50 [1] [µM] | EC50 [2] [µM] | EC50 [3] [µM] | IC50 ([4]; 72 h) [M] | IC50 ([5]; 72 h) [M] | IC50 [6] [M] | IC50 [7, 9] [M] | IC50 [8, 10] [M] | EC50 ([2]; Homo sapiens, SU-DHL-5, 3 h) [µM] | EC50 ([3]; Homo sapiens, SU-DHL10, 3 h) [µM] | IC50 [4, 11] [M] | IC50 [5, 12] [M] | IC50 ([6]; Homo sapiens, A2780, 72 h) [M] | IC50 [7, 13] [M] | IC50 [8, 14] [M] | IC50 ([4]; 72 h incubation) [M] | IC50 ([5]; 72 h incubation) [M] | IC50 [7, 15] [M] | IC50 [8, 16] [M] |
| --- | --- | --- | --- | --- | --- | --- | --- | --- | --- | --- | --- | --- | --- | --- | --- | --- | --- | --- | --- |
| Cn1nc(CN2CCCC2=O)c2c1COCCCCn1c(C(=O)O)c(CCCOc3cccc4ccccc34)c3cccc-2c31 (single isomer, unassigned; enantiomer 1) [Example 330, 1-methyl-7-[3-(naphthalen-1-yloxy)propyl]-3-[(2-oxopyrrolidin-1-yl)methyl]-1,10,11,12,13,15-hexahydropyrazolo[4′,3′:9,10][1,6]oxazacycloundecino[8,7,6-hi]indole-8-carboxylic Acid (Enantiomer 1)] | 0.153 | > 33 | > 33 | > 3.3e-05 | 2.49e-05 | > 3.3e-05 | > 3.3e-05 | > 3.3e-05 |  |  |  |  |  |  |  |  |  |  |  |
| Cn1nc(CN2CCCCC2)c2c1COCCCCn1c(C(=O)O)c(CCCOc3cccc4ccccc34)c3cccc-2c31 (single isomer, unassigned; enantiomer 1) [Example 333, 1-methyl-7-[3-(naphthalen-1-yloxy)propyl]-3-(piperidin-1-ylmethyl)-1,10,11,12,13,15-hexahydropyrazolo[4′,3′:9,10][1,6]oxazacycloundecino[8,7,6-hi]indole-8-carboxylic Acid (Enantiomer 1)] | 1.04 |  |  |  |  |  |  |  | 17.3 | > 33 | 8.44e-06 | 8.22e-06 | 1.67e-05 | 2.89e-05 | > 3.3e-05 |  |  |  |  |
| Cn1nc(CN2CCCC2)c2c1COCCCCn1c(C(=O)O)c(CCCOc3cccc4ccccc34)c3cccc-2c31 (single isomer, unassigned; enantiomer 1) [Example 336, 1-methyl-7-[3-(naphthalen-1-yloxy)propyl]-3-(pyrrolidin-1-ylmethyl)-1,10,11,12,13,15-hexahydropyrazolo[4′,3′:9,10][1,6]oxazacycloundecino[8,7,6-hi]indole-8-carboxylic Acid (Enantiomer 1)] | 0.132 |  |  |  |  |  |  |  | > 33 | > 33 | > 3.3e-05 | > 3.3e-05 | > 3.3e-05 | > 3.3e-05 | > 3.3e-05 |  |  |  |  |
| CC(=O)NCc1nn(C)c2c1-c1cccc3c(CCCOc4cccc5ccccc45)c(C(=O)O)n(c13)CCCCOC2 (single isomer, unassigned; enantiomer 1) [Example 340, 3-[(acetylamino)methyl]-1-methyl-7-[3-(naphthalen-1-yloxy)propyl]-1,10,11,12,13,15-hexahydropyrazolo[4′3′:9,10][1,6]oxazacycloundecino[8,7,6-hi]indole-carboxylic Acid (Enantiomer 1)] | 0.0219 |  |  |  |  |  |  |  | 21.1 | > 33 | 4.71e-06 | > 3.3e-05 | > 3.3e-05 | 1.56e-05 | > 3.3e-05 |  |  |  |  |
| Cn1nc(COC(=O)NCC(F)(F)F)c2c1COCCCCn1c(C(=O)O)c(CCCOc3cccc4ccccc34)c3cccc-2c31 (single isomer, unassigned; enantiomer 1) [Example 343, 1-methyl-7-[3-(naphthalen-1-yloxy)propyl]-3-({[(2,2,2-trifluoroethyl)carbamoyl]oxy}methyl)-1,10,11,12,13,15-hexahydropyrazolo[4′,3′:9,10][1,6]oxazacycloundecino[8,7,6-hi]indole-8-carboxylic Acid (Enantiomer 1)] | 0.325 |  |  |  |  |  |  |  | 29.7 | > 33 | 1.92e-06 | 1.11e-06 | 1.9e-05 | > 3.3e-05 | > 3.3e-05 |  |  |  |  |
| Cn1nc(CN2CC3(COC3)C2)c2c1COCCCCn1c(C(=O)O)c(CCCOc3cccc4ccccc34)c3cccc-2c31 (single isomer, unassigned; enantiomer 1) [Example 344, 1-methyl-7-[3-(naphthalen-1-yloxy)propyl]-3-(2-oxa-6-azaspiro[3.3]hept-6-ylmethyl)-1,10,11,12,13,15-hexahydropyrazolo[4′,3′:9,10][1,6]oxazacycloundecino[8,7,6-hi]indole-8-carboxylic acid-N-ethylethanamine Salt (Enantiomer 1)] | 0.433 | > 33 | > 33 | 2.08e-05 | 1.44e-05 | > 3.3e-05 | > 3.3e-05 | > 3.3e-05 |  |  |  |  |  |  |  |  |  |  |  |
| Cc1nn(C)c2c1-c1cccc3c(CCCOc4cccc5c4CCCC5)c(C(=O)O)n(c13)CCCCOC2 (single isomer, unassigned; enantiomer 2) [Example 008, 1,3-dimethyl-7-[3-(5,6,7,8-tetrahydronaphthalen-1-yloxy)propyl]-1,10,11,12,13,15-hexahydropyrazolo[4′3′:9,10][1,6]oxazacycloundecino[8,7,6-hi]indole-8-carboxylic Acid-N-ethylethanamine Salt (Enantiomer 2)] | 0.126 | > 33 | > 33 |  |  | 2.46e-05 |  |  |  |  |  |  |  |  |  | 2.59e-05 | 1.55e-05 | > 3.3e-05 | > 3.3e-05 |
| Cc1cc(OCCCc2c(C(=O)O)n3c4c(cccc24)-c2c(C)nn(C)c2COCCCC3)cc(C)c1Cl (single isomer, unassigned; enantiomer 2) [Example 011, 7-[3-(4-chloro-3,5-dimethylphenoxy)propyl]-1,3-dimethyl-1,10,11,12,13,15-hexahydropyrazolo[4′,3′:9,10][1,6]oxazacycloundecino[8,7,6-hi]indole-8-carboxylic Acid-N-ethylethanamine Salt (Enantiomer 2)] | 0.162 | > 33 | > 33 |  |  | 1.58e-05 |  |  |  |  |  |  |  |  |  | 2.02e-05 | 1.18e-05 | > 3.3e-05 | > 3.3e-05 |
| Cc1nn(C)c2c1-c1cccc3c(CCCOc4cccc5cc(F)ccc45)c(C(=O)O)n(c13)CCCCOC2 (single isomer, unassigned; enantiomer 2) [Example 020, 7-{3-[(6-fluoronaphthalen-1-yl)oxy]propyl}-1,3-dimethyl-1,10,11,12,13,15-hexahydropyrazolo[4′,3′:9,10][1,6]oxazacycloundecino[8,7,6-hi]indole-8-carboxylic Acid-N-ethylethanamine Salt (Enantiomer 2)] | 0.0646 | > 33 | > 33 |  |  | 1.37e-05 |  |  |  |  |  |  |  |  |  | 1.72e-05 | 6.75e-06 | 2.31e-05 | > 3.3e-05 |
| Cc1ccc2c(CCCOc3cccc4ccccc34)c(C(=O)O)n3c2c1-c1c(C)nn(C)c1COCCCC3 (single isomer, unassigned; enantiomer 2) [Example 029, 1,3,4-trimethyl-7-[3-(naphthalen-1-yloxy)propyl]-1,10,11,12,13,15-hexahydropyrazolo[4′,3′:9,10][1,6]oxazacycloundecino[8,7,6-hi]indole-8-carboxylic acid-N-ethylethanamine Salt (Enantiomer 2)] | 0.22 | > 33 | > 33 |  |  | 2.01e-05 |  |  |  |  |  |  |  |  |  | 1.82e-05 | 1.38e-05 | > 3.3e-05 | > 3.3e-05 |
| Cc1cc2c(OCCCc3c(C(=O)O)n4c5c(cccc35)-c3c(C)nn(C)c3COCCCC4)cccc2cc1F (single isomer, unassigned; enantiomer 2) [Example 051, 7-{3-[(6-fluoro-7-methylnaphthalen-1-yl)oxy]propyl}-1,3-dimethyl-1,10,11,12,13,15-hexahydropyrazolo[4′,3′:9,10][1,6]oxazacycloundecino[8,7,6-hi]indole-8-carboxylic acid-N-ethylethanamine Salt (Enantiomer 2)] | 0.0737 | > 33 | > 33 |  |  | 1.53e-05 |  |  |  |  |  |  |  |  |  | 8.91e-06 | 4.39e-06 | 3e-05 | 2.02e-05 |
